From patent US11292791B2 (priority 2017, dated 2022) come the findings set out here.

Structures are written as SMILES.

The test deals with BRD4 (Homo sapiens (Human), UniProt O60885). The conditions noted are these: read-out: BRD4 IC50 (μM gmean).

In the case of `COC(=O)N1c2ccc3c(nc(CCn4cccn4)n3CCN3CC4(COC4)C3)c2CC[C@@H]1C` [Example 228], the IC50 – broadly, the point on the concentration scale where inhibition reaches its midpoint – was 1 to 1000 µM.
Under `COC(=O)N1c2ccc3c(nc(CCn4ccccc4=O)n3CCN3CCNCC3)c2CC[C@@H]1C` [Example 229] stands 1 to 1000 µM; under `COC(=O)N1c2ccc3c(nc(CCn4ccccc4=O)n3CCN3CCN(C)CC3)c2CC[C@@H]1C` [Example 230], 1 to 1000 µM; under `COC(=O)N1c2ccc3c(nc(CCc4ccccc4)n3CCN(C)C)c2CC[C@@H]1C` [Example 242, methyl-(7S)-3-[2-(dimethylamino)ethyl]-7-methyl-2-(2-phenylethyl)-3H,6H,7H,8H,9H-imidazo[4,5-f]quinoline-6-carboxylate], 1 to 1000 µM.
Take `COC(=O)N1c2ccc3c(nc(CCc4ccccc4)n3CCN3CCOCC3)c2CC[C@@H]1C` [Example 245]: the IC50 lay in the range of 1 to 1000 µM.
As for `COC(=O)N1c2ccc3c(nc(C)n3CCN3CCOCC3)c2CC[C@@H]1C` [Example 248], the figure is 1 to 1000 µM; as for `COC(=O)N1c2ccc3c(nc(C(C)(C)C)n3CCN3CCOCC3)c2CC[C@@H]1C` [Example 249], 1 to 1000 µM.
Under `COC(=O)N1c2ccc3c(nc(-c4ccccc4)n3CCN3CCOCC3)c2CC[C@@H]1C` [Example 250] stands 1 to 1000 µM; under `COC(=O)N1c2ccc3c(nc(CCC4CC4)n3CCN3CCOCC3)c2CC[C@@H]1C` [Example 251], 1 to 1000 µM.
As for `COC(=O)N1c2ccc3c(nc(Cc4ccccc4)n3CC3CCS(=O)(=O)CC3)c2CC[C@@H]1C` [Example 253], the figure is 1 to 1000 µM.
As for `COC(=O)N1c2ccc3c(nc(Cc4ccccc4)n3C3CCS(=O)(=O)CC3)c2CC[C@@H]1C` [Example 254], the IC50 is 1 to 1000 µM.
Under `COC(=O)N1c2ccc3c(nc(Cc4ccccc4)n3[C@H]3CC[C@H](C#N)CC3)c2CC[C@@H]1C` [Example 255] stands 1 to 1000 µM; under `COC(=O)N1c2ccc3c(nc(Cc4ccccc4)n3[C@H]3CC[C@@H](C#N)CC3)c2CC[C@@H]1C` [Example 256], 1 to 1000 µM; under `COC(=O)N1c2ccc3c(nc(Cc4ccccc4)n3C3CCN(C)CC3)c2CC[C@@H]1C` [Example 257], 1 to 1000 µM.
Under `COC(=O)N1c2ccc3c(nc(Cn4ccccc4=O)n3C3CCOCC3)c2CC[C@@H]1C` [Example 259] stands 1 to 1000 µM; under `COC(=O)N1c2ccc3c(nc(Cn4ccccc4=O)n3[C@H]3CCCOC3)c2CC[C@@H]1C` [Example 260], 1 to 1000 µM; under `COC(=O)N1c2ccc3c(nc(CCn4ccccc4=O)n3CCCS(C)(=O)=O)c2CC[C@@H]1C` [Example 261], 1 to 1000 µM.
For `COC(=O)N1c2ccc3c(nc(CCn4cccn4)n3C3CCS(=O)(=O)CC3)c2CC[C@@H]1C` [Example 262], the IC50 was in the range of 1 to 1000 µM.
As for `COC(=O)N1c2ccc3c(nc(Cc4ccccc4)n3C3CCCCC3)c2CC[C@@H]1C` [Example 263], the figure is 1 to 1000 µM; as for `COC(=O)N1c2ccc3c(nc(Cc4ccccc4)n3[C@H]3CCCS(=O)(=O)C3)c2CC[C@@H]1C` [Example 264, methyl (S)-2-benzyl-3-((S)-1,1-dioxidotetrahydro-2H-thiopyran-3-yl)-7-methyl-3,7,8,9-tetrahydro-6H-imidazo[4,5-f]quinoline-6-carboxylate], 1 to 1000 µM; as for `COC(=O)N1c2ccc3c(nc(Cc4ccccc4)n3[C@@H]3CCCS(=O)(=O)C3)c2CC[C@@H]1C` [Example 265, methyl (S)-2-benzyl-3-((R)-1,1-dioxidotetrahydro-2H-thiopyran-3-yl)-7-methyl-3,7,8,9-tetrahydro-6H-imidazo[4,5-f]quinoline-6-carboxylate], 1 to 1000 µM.
As for `COC(=O)N1c2ccc3c(nc(CCn4cccn4)n3CCCS(C)(=O)=O)c2CC[C@@H]1C` [Example 270], the figure is 1 to 1000 µM; as for `COC(=O)N1c2ccc3c(nc(CCn4cccn4)n3CCS(C)(=O)=O)c2CC[C@@H]1C` [Example 271], 1 to 1000 µM; as for `COC(=O)N1c2ccc3c(nc(CCn4ccccc4=O)n3CCN3CCOCC3)c2CC[C@@H]1C` [Example 272], 1 to 1000 µM.
As for `COC(=O)N1c2ccc3c(nc(CCn4ccccc4=O)n3CCS(C)(=O)=O)c2CC[C@@H]1C` [Example 273], the figure is 1 to 1000 µM.
In the case of `COC(=O)N1c2ccc3c(nc(CCn4nccn4)n3C3CCS(=O)(=O)CC3)c2CC[C@@H]1C` [Example 275], the IC50 was 1 to 1000 µM.
As for `COC(=O)N1c2ccc3c(nc(Cc4ccccc4)n3C3CCN(c4nnn[nH]4)CC3)c2CC[C@@H]1C` [Example 278], the figure is 1 to 1000 µM; as for `COC(=O)N1c2ccc3c(nc(Cc4ccccc4)n3[C@@H]3CCC[C@H](c4nnn[nH]4)C3)c2CC[C@@H]1C` [Example 279, methyl (S)-3-((1R,3S)-3-(1H-tetrazol-5-yl)cyclohexyl)-2-benzyl-7-methyl-3,7,8,9-tetrahydro-6H-imidazo[4,5-f]quinoline-6-carboxylate], 1 to 1000 µM; as for `COC(=O)N1c2ccc3c(nc(Cc4ccccc4)n3[C@H]3CCC[C@@H](c4nnn[nH]4)C3)c2CC[C@@H]1C` [Example 280, methyl (S)-3-((1S,3R)-3-(1H-tetrazol-5-yl)cyclohexyl)-2-benzyl-7-methyl-3,7,8,9-tetrahydro-6H-imidazo[4,5-f]quinoline-6-carboxylate], 1 to 1000 µM.
Under `COC(=O)N1c2ccc3c(nc(Cc4ccccc4)n3[C@@H]3CCC[C@@H](c4nnn[nH]4)C3)c2CC[C@@H]1C` [Example 281, methyl (S)-3-((1R,3R)-3-(1H-tetrazol-5-yl)cyclohexyl)-2-benzyl-7-methyl-3,7,8,9-tetrahydro-6H-imidazo[4,5-f]quinoline-6-carboxylate] stands 1 to 1000 µM; under `COC(=O)N1c2ccc3c(nc(Cc4ccccc4)n3[C@H]3CCC[C@H](c4nnn[nH]4)C3)c2CC[C@@H]1C` [Example 282, methyl (S)-3-((1S,3S)-3-(1H-tetrazol-5-yl)cyclohexyl)-2-benzyl-7-methyl-3,7,8,9-tetrahydro-6H-imidazo[4,5-f]quinoline-6-carboxylate], 1 to 1000 µM.
As for `COC(=O)N1c2ccc3c(nc(Cc4ccccc4)n3[C@H]3CC[C@H](c4nnn[nH]4)CC3)c2CC[C@@H]1C` [Example 283], the IC50 lay within 1 to 1000 µM.
As for `COC(=O)N1c2ccc3c(nc(Cc4ccccc4)n3[C@H]3CC[C@@H](c4nnn[nH]4)CC3)c2CC[C@@H]1C` [Example 284], the figure is 1 to 1000 µM.
As for `COC(=O)N1c2ccc3c(nc(Cc4ccccc4)n3CC(=O)O)c2CC[C@@H]1C` [Example 285, (S)-2-(2-benzyl-6-(methoxycarbonyl)-7-methyl-6,7,8,9-tetrahydro-3H-imidazo[4,5-f]quinolin-3-yl)acetic Acid], the figure is 1 to 1000 µM.
As for `COC(=O)N1c2ccc3c(nc(Cc4ccccc4)n3CC(N)=O)c2CC[C@@H]1C` [Example 286, methyl (S)-3-(2-amino-2-oxoethyl)-2-benzyl-7-methyl-3,7,8,9-tetrahydro-6H-imidazo[4,5-f]quinoline-6-carboxylate], the figure is 1 to 1000 µM.
On to `COC(=O)N1c2ccc3c(nc(Cc4ccccc4)n3CCO)c2CC[C@@H]1C` [Example 287, methyl (S)-2-benzyl-3-(2-hydroxyethyl)-7-methyl-3,7,8,9-tetrahydro-6H-imidazo[4,5-f]quinoline-6-carboxylate], for which the IC50 lay in the range of 1 to 1000 µM.
Under `COC(=O)N1c2ccc3c(nc(CCn4cccn4)n3CCNCc3cnco3)c2CC[C@@H]1C` [Example 292] stands 1 to 1000 µM; under `COC(=O)N1c2ccc3c(nc(CCn4cccn4)n3CCNCc3cnn(C)c3)c2CC[C@@H]1C` [Example 293], 1 to 1000 µM.
With `COC(=O)N1c2ccc3c(nc(CCn4cccn4)n3CCNCc3cccnc3)c2CC[C@@H]1C` [Example 294], the IC50 was in the range of 1 to 1000 µM.
Under `COC(=O)N1c2ccc3c(nc(CCn4cccn4)n3CCN(C)CCO)c2CC[C@@H]1C` [Example 296] stands 1 to 1000 µM.
As for `COC(=O)N1c2ccc3c(nc(CCn4cccn4)n3CCN(C)CC(=O)N(C)C)c2CC[C@@H]1C` [Example 297], the figure is 1 to 1000 µM; as for `COC(=O)N1c2ccc3c(nc(CCn4cccn4)n3CCN3CCC(O)CC3)c2CC[C@@H]1C` [Example 298], 1 to 1000 µM.
As for `COC(=O)N1c2ccc3c(nc(CCn4cccn4)n3CCN3CCC(CO)CC3)c2CC[C@@H]1C` [Example 299], the figure is 1 to 1000 µM; as for `COC(=O)N1c2ccc3c(nc(CCn4cccn4)n3CCNCC(=O)N3CCCC3)c2CC[C@@H]1C` [Example 300], 1 to 1000 µM; as for `COC(=O)N1c2ccc3c(nc(CCn4cccn4)n3CCN(C)C3CCOCC3)c2CC[C@@H]1C` [Example 301], 1 to 1000 µM.
For the molecule `COC(=O)N1c2ccc3c(nc(CCn4cccn4)n3CCN(C)[C@H]3CCOC3)c2CC[C@@H]1C` [Example 302], the IC50 was 1 to 1000 µM.
Under `COC(=O)N1c2ccc3c(nc(CCn4cccn4)n3CCN3CC[C@H](C(N)=O)C3)c2CC[C@@H]1C` [Example 303] stands 1 to 1000 µM; under `COC(=O)N1c2ccc3c(nc(CCn4cccn4)n3CCN(C)CC(C)(C)O)c2CC[C@@H]1C` [Example 304], 1 to 1000 µM.
As for `COC(=O)N1c2ccc3c(nc(CCn4cccn4)n3CCNC3COC3)c2CC[C@@H]1C` [Example 305], the figure is 1 to 1000 µM; as for `COC(=O)N1c2ccc3c(nc(CCn4cccn4)n3CCNCCC#N)c2CC[C@@H]1C` [Example 306], 1 to 1000 µM.
Under `COC(=O)N1c2ccc3c(nc(CCn4cccn4)n3CCNCCN3CCNC3=O)c2CC[C@@H]1C` [Example 307] stands 1 to 1000 µM; under `COC(=O)N1c2ccc3c(nc(CCn4cccn4)n3CCN3CCC(C#N)CC3)c2CC[C@@H]1C` [Example 308], 1 to 1000 µM.
Consider `COC(=O)N1c2ccc3c(nc(CCn4cccn4)n3CCN3CC[C@@H](NC(C)=O)C3)c2CC[C@@H]1C` [Example 309], for which the IC50 was in the range of 1 to 1000 µM.
Under `COC(=O)N1c2ccc3c(nc(CCn4cccn4)n3CCN3CC[C@H](NC(C)=O)C3)c2CC[C@@H]1C` [Example 310] stands 1 to 1000 µM; under `COC(=O)N1c2ccc3c(nc(CCn4cccn4)n3CCN3CCN(C(C)C)CC3)c2CC[C@@H]1C` [Example 311], 1 to 1000 µM; under `COC(=O)N1c2ccc3c(nc(CCn4cccn4)n3CCN3CCN(C4CC4)CC3)c2CC[C@@H]1C` [Example 312], 1 to 1000 µM.
